Key:
purple nutsedge = experiment: Test B pre/postemergence purple nutsedge; assay type: in vivo, Cyperus rotundus
Procedure, shortened: (§1)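 Response is a visual 0-to-10 score relative to untreated plants, where 0 means no effect and 10 means complete control, taken twelve to sixteen days after application. Treatments went onto soil at planting and onto foliage of 1- to 4-leaf plants, using a surfactant-containing non-phytotoxic solvent.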

pigweed = experiment: Test B pre/postemergence pigweed; assay type: in vivo, Amaranthus retroflexus
Procedure, shortened: as §1

bedstraw = experiment: Test B pre/postemergence bedstraw; assay type: in vivo, Galium aparine
Procedure, shortened: as §1

soybean = experiment: Test B pre/postemergence soybean; assay type: in vivo, Glycine max
Procedure, shortened: as §1

sugar beet = experiment: Test B pre/postemergence sugar beet; assay type: in vivo, Beta vulgaris
Procedure, shortened: as §1

cocklebur = experiment: Test B pre/postemergence cocklebur; assay type: in vivo, Xanthium strumarium
Procedure, shortened: as §1

wheat = experiment: Test B pre/postemergence wheat; assay type: in vivo, Triticum aestivum
Procedure, shortened: as §1

blackgrass = experiment: Test B pre/postemergence blackgrass; assay type: in vivo, Alopecurus myosuroides
Procedure, shortened: as §1

corn = experiment: Test B pre/postemergence corn; assay type: in vivo, Zea mays
From the text: (§2) Seeds of bedstraw (Galium aparine), blackgrass (Alopecurus myosuroides), surinam grass (Brachiaria decumbens), cocklebur (Xanthium strumarium), corn (Zea mays), crabgrass (Digitaria sanguinalis), giant foxtail (Setaria faberii), morningglory (Ipomoea hederacea), pigweed (Amaranthus retroflexus), rape (Brassica napus), soybean (Glycine max), sugar beet (Beta vulgaris), velvetleaf (Abutilon theophrasti), wheat (Triticum aestivum), wild oat (Avena fatua) and purple nutsedge (Cyperus rotundus) tubers were planted and treated preemnergence with test chemicals formulated in a non-phytotoxic solvent mixture which included a surfactant.
(§3) At the same time, these crop and weed species were also treated with postemergence applications of test chemicals formulated in the same manner. Plants ranged in height from 2 to 18 cm (1- to 4-leaf stage) for postemergence treatments. Plant species in the flood test consisted of rice (Oryza sativa), smallflower flatsedge (Cyperus difformis), duck salad (Heteranthera limosa) and bamyardgrass (Echinochloa crus-galli) grown to the 2-leaf stage for testing. Treated plants and controls were maintained in a greenhouse for twelve to sixteen days, after which all species were compared to controls and visually evaluated. Plant response ratings, summarized in Table B, are based on a scale of 0 to 10 where 0 is no effect and 10 is complete control. A dash (−) response means no test result.

giant foxtail = experiment: Test B pre/postemergence giant foxtail; assay type: in vivo, Setaria faberii
Procedure, shortened: as §1

surinam grass = experiment: Test B pre/postemergence surinam grass; assay type: in vivo, Brachiaria decumbens
From the text: as §2, §3

crabgrass = experiment: Test B pre/postemergence crabgrass; assay type: in vivo, Digitaria sanguinalis
Procedure, shortened: as §1

velvetleaf = experiment: Test B pre/postemergence velvetleaf; assay type: in vivo, Abutilon theophrasti
Procedure, shortened: as §1

morningglory = experiment: Test B pre/postemergence morningglory; assay type: in vivo, Ipomoea hederacea
From the text: as §2, §3

rape = experiment: Test B pre/postemergence rape; assay type: in vivo, Brassica napus
Procedure, shortened: as §1

wild oat = experiment: Test B pre/postemergence wild oat; assay type: in vivo, Avena fatua
Procedure, shortened: as §1

[1] = Preemergence, Rate 62 g/ha, scale of 0 to 10 where 0 is no effect and 10 is complete control
[2] = Preemergence, Rate 125 g/ha, 0 is no effect, 10 is complete control
[3] = Preemergence, Rate 250 g/ha, scale 0 to 10, 0 is no effect, 10 is complete control
[4] = Preemergence, Rate 500 g/ha, scale 0 to 10 (0 no effect, 10 complete control)
[5] = Rate 62 g/ha, Postemergence, scale of 0 to 10 where 0 is no effect and 10 is complete control
[6] = Rate 125 g/ha, Postemergence, scale 0 to 10
[7] = Rate 500 g/ha, Postemergence, scale 0 to 10

Compound: CC(C)N(C(=O)n1oc(=O)n([C@H](C)c2ccccc2)c1=O)c1ccc(F)cc1 [Compound 179]
- Nutsedge plant response rating (purple nutsedge; [1]): 0
- Nutsedge plant response rating (0 to 10 scale) (purple nutsedge; [2]): 0
- Nutsedge plant response rating (purple nutsedge; [3]): 0
- Nutsedge plant response rating (purple nutsedge; [4]): 10
- Nutsedge plant response rating (purple nutsedge; [5]): 0
- Nutsedge plant response rating (purple nutsedge; [6]): 0
- Plant response rating (0 to 10; 0 is no effect, 10 is complete control), Nutsedge (purple nutsedge; Rate 250 g/ha, Postemergence): 0
- Nutsedge plant response rating (purple nutsedge; [7]): 0
- Redroot pigweed plant response rating (pigweed; [1]): 7
- Redroot pigweed plant response rating (0 to 10 scale) (pigweed; [2]): 7
- Redroot pigweed plant response rating (pigweed; [3]): 7
- Redroot pigweed plant response rating (pigweed; [4]): 10
- Redroot pigweed plant response rating (pigweed; [5]): 0
- Redroot pigweed plant response rating (pigweed; [6]): 0
- Plant response rating (0 to 10; 0 is no effect, 10 is complete control), Redroot pigweed (pigweed; Rate 250 g/ha, Postemergence): 4
- Redroot pigweed plant response rating (pigweed; [7]): 8
- Bedstraw plant response rating (bedstraw; [1]): 0
- Bedstraw plant response rating (0 to 10 scale) (bedstraw; [2]): 0
- Bedstraw plant response rating (bedstraw; [3]): 0
- Bedstraw plant response rating (bedstraw; [4]): 0
- Bedstraw plant response rating (bedstraw; [5]): 0
- Bedstraw plant response rating (bedstraw; [6]): 5
- Plant response rating (0 to 10; 0 is no effect, 10 is complete control), Bedstraw (bedstraw; Rate 250 g/ha, Postemergence): 5
- Bedstraw plant response rating (bedstraw; [7]): 10
- Soybean plant response rating (soybean; [1]): 0
- Soybean plant response rating (0 to 10 scale) (soybean; [2]): 0
- Soybean plant response rating (soybean; [3]): 0
- Soybean plant response rating (soybean; [4]): 0
- Soybean plant response rating (soybean; [5]): 1
- Soybean plant response rating (soybean; [6]): 1
- Plant response rating (0 to 10; 0 is no effect, 10 is complete control), Soybean (soybean; Rate 250 g/ha, Postemergence): 1
- Soybean plant response rating (soybean; [7]): 1
- Sugarbeets plant response rating (sugar beet; [1]): 0
- Sugarbeets plant response rating (0 to 10 scale) (sugar beet; [2]): 0
- Sugarbeets plant response rating (sugar beet; [3]): 0
- Sugarbeets plant response rating (sugar beet; [4]): 0
- Sugarbeets plant response rating (sugar beet; [5]): 0
- Sugarbeets plant response rating (sugar beet; [6]): 0
- Plant response rating (0 to 10; 0 is no effect, 10 is complete control), Sugarbeets (sugar beet; Rate 250 g/ha, Postemergence): 2
- Sugarbeets plant response rating (sugar beet; [7]): 6
- Cocklebur plant response rating (cocklebur; [1]): 0
- Cocklebur plant response rating (0 to 10 scale) (cocklebur; [2]): 0
- Cocklebur plant response rating (cocklebur; [3]): 0
- Cocklebur plant response rating (cocklebur; [4]): 0
- Cocklebur plant response rating (cocklebur; [5]): 0
- Cocklebur plant response rating (cocklebur; [6]): 0
- Plant response rating (0 to 10; 0 is no effect, 10 is complete control), Cocklebur (cocklebur; Rate 250 g/ha, Postemergence): 0
- Cocklebur plant response rating (cocklebur; [7]): 1
- Wheat plant response rating (wheat; [1]): 0
- Wheat plant response rating (0 to 10 scale) (wheat; [2]): 0
- Wheat plant response rating (wheat; [3]): 0
- Wheat plant response rating (wheat; [4]): 2
- Wheat plant response rating (wheat; [6]): 0
- Plant response rating (0 to 10; 0 is no effect, 10 is complete control), Wheat (wheat; Rate 250 g/ha, Postemergence): 0
- Wheat plant response rating (wheat; [7]): 0
- Blackgrass plant response rating (blackgrass; [1]): 0
- Blackgrass plant response rating (0 to 10 scale) (blackgrass; [2]): 0
- Blackgrass plant response rating (blackgrass; [3]): 2
- Blackgrass plant response rating (blackgrass; [4]): 2
- Blackgrass plant response rating (blackgrass; [5]): 0
- Blackgrass plant response rating (blackgrass; [6]): 2
- Plant response rating (0 to 10; 0 is no effect, 10 is complete control), Blackgrass (blackgrass; Rate 250 g/ha, Postemergence): 4
- Blackgrass plant response rating (blackgrass; [7]): 6
- Corn plant response rating (corn; [1]): 0
- Corn plant response rating (0 to 10 scale) (corn; [2]): 0
- Corn plant response rating (corn; [3]): 0
- Corn plant response rating (corn; [4]): 0
- Corn plant response rating (corn; [5]): 0
- Corn plant response rating (corn; [6]): 0
- Plant response rating (0 to 10; 0 is no effect, 10 is complete control), Corn (corn; Rate 250 g/ha, Postemergence): 0
- Corn plant response rating (corn; [7]): 0
- Giant foxtail plant response rating (giant foxtail; [1]): 6
- Giant foxtail plant response rating (0 to 10 scale) (giant foxtail; [2]): 9
- Giant foxtail plant response rating (giant foxtail; [3]): 10
- Giant foxtail plant response rating (giant foxtail; [4]): 10
- Giant foxtail plant response rating (giant foxtail; [5]): 0
- Giant foxtail plant response rating (giant foxtail; [6]): 0
- Plant response rating (0 to 10; 0 is no effect, 10 is complete control), Giant foxtail (giant foxtail; Rate 250 g/ha, Postemergence): 0
- Giant foxtail plant response rating (giant foxtail; [7]): 4
- B. signalgrass plant response rating (surinam grass; [1]): 7
- B. signalgrass plant response rating (0 to 10 scale) (surinam grass; [2]): 8
- B. signalgrass plant response rating (surinam grass; [4]): 9
- B. signalgrass plant response rating (surinam grass; [5]): 0
- B. signalgrass plant response rating (surinam grass; Rate 125 g/ha, Postemergence, scale 0 (no effect) to 10 (complete control)): 0
- Plant response rating, B. signalgrass (surinam grass; Rate 250 g/ha, Postemergence, scale 0 to 10, 0 is no effect, 10 is complete control): 0
- B. signalgrass plant response rating (surinam grass; Rate 500 g/ha, Postemergence, scale 0 to 10, 0 no effect, 10 complete control): 0
- Crabgrass plant response rating (crabgrass; [1]): 6
- Crabgrass plant response rating (0 to 10 scale) (crabgrass; [2]): 7
- Crabgrass plant response rating (crabgrass; [3]): 9
- Crabgrass plant response rating (crabgrass; [4]): 9
- Crabgrass plant response rating (crabgrass; [5]): 0
- Crabgrass plant response rating (crabgrass; [6]): 0
- Plant response rating (0 to 10; 0 is no effect, 10 is complete control), Crabgrass (crabgrass; Rate 250 g/ha, Postemergence): 2
- Crabgrass plant response rating (crabgrass; [7]): 9
- Velvetleaf plant response rating (velvetleaf; [1]): 0
- Velvetleaf plant response rating (0 to 10 scale) (velvetleaf; [2]): 0
- Velvetleaf plant response rating (velvetleaf; [3]): 0
- Velvetleaf plant response rating (velvetleaf; [4]): 5
- Velvetleaf plant response rating (velvetleaf; [6]): 0
- Plant response rating (0 to 10; 0 is no effect, 10 is complete control), Velvetleaf (velvetleaf; Rate 250 g/ha, Postemergence): 0
- Velvetleaf plant response rating (velvetleaf; [7]): 3
- Morningglory plant response rating (morningglory; [1]): 0
- Morningglory plant response rating (0 to 10 scale) (morningglory; [2]): 0
- Morningglory plant response rating (morningglory; [3]): 0
- Morningglory plant response rating (morningglory; [4]): 0
- Morningglory plant response rating (morningglory; [5]): 4
- Morningglory plant response rating (morningglory; [6]): 5
- Plant response rating (0 to 10; 0 is no effect, 10 is complete control), Morningglory (morningglory; Rate 250 g/ha, Postemergence): 5
- Morningglory plant response rating (morningglory; [7]): 5
- Rape plant response rating (rape; [1]): 0
- Rape plant response rating (0 to 10 scale) (rape; [2]): 0
- Rape plant response rating (rape; [3]): 2
- Rape plant response rating (rape; [4]): 4
- Rape plant response rating (rape; [5]): 0
- Rape plant response rating (rape; [6]): 0
- Plant response rating (0 to 10; 0 is no effect, 10 is complete control), Rape (rape; Rate 250 g/ha, Postemergence): 0
- Rape plant response rating (rape; [7]): 2
- Wild oats plant response rating (wild oat; [1]): 0
- Wild oats plant response rating (0 to 10 scale) (wild oat; [2]): 0
- Wild oats plant response rating (wild oat; [3]): 0
- Wild oats plant response rating (wild oat; [4]): 3
- Wild oats plant response rating (wild oat; [6]): 0
- Plant response rating (0 to 10; 0 is no effect, 10 is complete control), Wild oats (wild oat; Rate 250 g/ha, Postemergence): 0
- Wild oats plant response rating (wild oat; [7]): 2
